Reference: patent publication US20030232851A1, “Viral treatment” (The Procter & Gamble Company, priority 1999, published 2003)
Converted amounts (≈) assume the structure as drawn. “And” between values parts separate entries of the source, which are not always exact repeats. Equal values may be shown once.

What was measured:
[1] = tested on: HHV8 cell line, TPA-induced BCBL-1 cells; experiment: Kaposi's Sarcoma (HHV8) in vitro test, DNA copy number; type: cell-based
Protocol: The DNA copy number and the toxicity value were measured and compared with Cidofovir.

[2] = tested on: vero cells; experiment: Herpes simplex testing: toxicity (TC50); set-up: unit not given beside the values
[3] = tested on: HIV-2 cell line, CEMROD; experiment: Long term in vitro study, CEMROD, reverse transcriptase; type: cell-based
Protocol: (§1) A microtiter-based reveres transcriptase (RT) reaction is utilized (Buckheit et al (1991) AIDS Research and Human Retroviruses 7:295-302). Tritiated thymidine triphosphate (NEN)(TTP) is resuspended in distilled water at 5 Ci/ml. Poly rA and oligo dT are prepared as a stock solution which is kept at −20° C. The RT reaction buffer is prepared fresh on a daily basis and consists of 125 μl 1M EGTA, 125 μl water, 125 μl Triton X-100, 50 μl Tris (pH 7.4), 50 μl 1 MDDT, and 40 μl 1M MgCl2. These three solutions are mixed together in a ratio of 1 part TTP, 2.5 parts poly rA:oligo dT, 2.5 parts reaction buffer and 4 parts distilled water. Ten microliters of this reaction mixture is placed in a round bottom microtiter place and 15 μl of virus containing supernatant is added and mixed. The plate is incubated at 37° C. for 60 minutes. Following reaction, the reaction volume is spotted onto filter mats, washed 6 times for 5 minutes each in a 5% sodium phosphate buffer, 2 times for 1 minute each in distilled water, 2 times for 1 minute each in 70% ethanol, and then dried. The dried filter mat is placed in a plastic sample bag, Betaplate scintillation fluid is added and the bag is heat sealed. Incorporated radioactivity is quantified utilizing a Wallac Microbeta scintillation counter.
Acute infection of most established human cell lines with HIV-1 results in the eventual establishment of a constitutive virus-producing chronically infected cell line. The cells can be passaged for long periods of time in culture without loss of virus production. These cells may be utilized to evaluate the effects of anti-HIV compounds on syncytium formation or to evaluate the effects of anti-HIV compounds on levels of virus production from these cells. […] Each of the cells contains an integrated HIV genome or provirus. Chronically infected CEM, H9 and U937 cell lines have been prepared and cultured by Southern Research Institute, Frederick Md. and are available from them.
CEM-SS cells chronically infected with HIV isolate, for example SKI (CEM-SKI) are cultured in RPMI1640 tissue culture medium supplemented with 10% fetal bovine serum and antibiotics. […] CEM-SKI or other infected cells with no added drug are used as the control cells. Cells are allowed to grow to a density of approximately 1×10^6 cells/ml and are then passaged at a 1:10 dilution. […] The drug concentration in the flask is then increased two-fold and the cells maintained as above.
(§2) The cell populations contain integrated copies of the HIV genome and constitutively produce HIV at relatively high levels or are latently infected and only produce virus after stimulation with phorbol esters, tumor necrosis factor or IL6 (U1 and ACH2). Reductions in virus products were observed when quantifying supernatant reverse transcriptase activity,
A long term in vitro study of 2-(2-thienyl)-imidazolo [4,5-b]pyridine against an HIV-2 cell line, CEMROD was conducted at three different levels. The results with CEMROD cells were reported at weekly intervals.

[4] = tested on: HIV-1 cell line, CEMSKI; experiment: Long term in vitro study, CEMSKI, reverse transcriptase; type: cell-based; conditions: run through 242 days
Protocol: as §1, with “Following reaction, the reaction volume is spotted onto filter mats, washed 6 times for 5 minutes each in a 5% sodium phosphate buffer, 2 times for 1 minute each in distilled water, 2 times for 1 minute each in 70% ethanol, and then dried. The dried filter mat is placed in a plastic sample bag, Betaplate scintillation fluid is added and the bag is heat sealed.” left out, “counter. […]” for “counter.”
as §2, with “activity, […]” for “activity,”

[5] = tested on: Cryptococcus neoformans; experiment: Anti-fungal activity (NCCLS M-27A based), Cryptococcus neoformans; type: cell-based
Protocol: It was active against cryptococcus neoformans and curvularai lunata. The cidal activity for the C. neoformans is high enough that it is clear […] against this yeast. This test was conducted using a method based upon NCCLS reference method M-27A published in 1997. Solvent, medium and growth controls were set-up with the tests. Once these were read to validate the test performance, the QC fungi were read to insure they had expected results. These steps validated the test system. DMSO was used as a drug-chemical solvent. […] The 90% cut-off is necessary for azoles, which are static and not cidal. The FMC or cidal level was determined by sub-culturing a sample from each tube showing no growth.

In the case of `c1csc(-c2nc3cccnc3[nH]2)c1` [2-(2-thienyl)-imidazolo [4,5-b]pyridine], the “DNA Copy Number, % virus control” value ([1]; 0.64 μM) is reported as 97.2%, the “DNA Copy Number, average” value ([1]; 0.64 μM) is reported as 14122.1 per 3 μl and the “DNA Copy Number, samples 1-3” value ([1]; 0.64 μM) is reported as 16524.7 per 3 μl and 16524.9 per 3 μl and 12316.8 per 3 μl. For the same compound, the “DNA Copy Number, % virus control” value ([1]; 2 μM) was 94.0%, the “DNA Copy Number, average” value ([1]; 2 μM) was 13653.8 per 3 μl and the “DNA Copy Number, samples 1-3” value ([1]; 2 μM) was 13427.5 per 3 μl and 11819.4 per 3 μl and 15714.5 per 3 μl. The “DNA Copy Number, % virus control” value ([1]; 6.4 μM) was 95.5%, the “DNA Copy Number, average” value ([1]; 6.4 μM) was 13876.4 per 3 μl and the “DNA Copy Number, samples 1-3” value ([1]; 6.4 μM) was 11795.6 per 3 μl and 15297.5 per 3 μl and 14536.1 per 3 μl. For the same compound, the “DNA Copy Number, % virus control” value ([1]; 20 μM) was 77.9%, the “DNA Copy Number, average” value ([1]; 20 μM) was 11321.8 per 3 μl and the “DNA Copy Number, % virus control” value ([1]; 64 μM) was 2.9%. The “DNA Copy Number, average” value ([1]; 64 μM) was 427.3 per 3 μl, the “DNA Copy Number, % virus control” value ([1]; 200 μM) was 13.9% and the “DNA Copy Number, average” value ([1]; 200 μM) was 2020.8 per 3 μl. The “DNA Copy Number, samples 1-3” value ([1]; 200 μM) was 1680.4 per 3 μl and 2041.2 per 3 μl and 2340.8 per 3 μl, the IC50 ([1]; Human gammaherpesvirus 8, BCBL1) was 36.4 µM and the TC50 [2] was 82.8. It also gave a reverse transcriptase data ([3]; 7 μg/ml, day 4) of 8506, a reverse transcriptase data ([3]; 7 μg/ml, day 11) of 9471 and a reverse transcriptase data ([3]; 7 μg/ml, day 18) of 6147. For the same compound, the reverse transcriptase data ([3]; 7 μg/ml, day 25) was 6302, the reverse transcriptase data ([3]; 7 μg/ml, day 32) was 5482 and the reverse transcriptase data ([3]; 7 μg/ml, day 39) was 7253. The reverse transcriptase data ([3]; 7 μg/ml, day 46) was 4822, the reverse transcriptase data ([3]; 7 μg/ml, day 53) was 7257 and the reverse transcriptase data ([3]; 7 μg/ml, day 60) was 7019. The reverse transcriptase data ([3]; 7 μg/ml, day 67) was 7215, the reverse transcriptase data ([3]; 7 μg/ml, day 71) was 9052 and the reverse transcriptase data ([3]; 7 μg/ml, day 74) was 6240. It also gave a reverse transcriptase data ([3]; 7 μg/ml, day 88) of 10053, a reverse transcriptase data ([3]; 7 μg/ml, day 95) of 7482 and a reverse transcriptase data ([3]; 7 μg/ml, day 102) of 8023. For the same compound, the reverse transcriptase data ([3]; 7 μg/ml, day 109) was 13890, the reverse transcriptase data ([3]; 15 μg/ml, day 4) was 7447 and the reverse transcriptase data ([3]; 15 μg/ml, day 11) was 8887. It also gave a reverse transcriptase data ([3]; 15 μg/ml, day 18) of 5399, a reverse transcriptase data ([3]; 15 μg/ml, day 25) of 5040 and a reverse transcriptase data ([3]; 15 μg/ml, day 32) of 4695. The reverse transcriptase data ([3]; 15 μg/ml, day 39) was 6277, the reverse transcriptase data ([3]; 15 μg/ml, day 46) was 2165 and the reverse transcriptase data ([3]; 15 μg/ml, day 53) was 6546. It also gave a reverse transcriptase data ([3]; 15 μg/ml, day 60) of 5940, a reverse transcriptase data ([3]; 15 μg/ml, day 67) of 3215 and a reverse transcriptase data ([3]; 15 μg/ml, day 71) of 7256. For the same compound, the reverse transcriptase data ([3]; 15 μg/ml, day 74) was 4687, the reverse transcriptase data ([3]; 15 μg/ml, day 88) was 8277 and the reverse transcriptase data ([3]; 15 μg/ml, day 95) was 5116. For the same compound, the reverse transcriptase data ([3]; 15 μg/ml, day 102) was 6546, the reverse transcriptase data ([3]; 15 μg/ml, day 109) was 10349 and the reverse transcriptase data ([3]; 30 μg/ml, day 4) was 4426. The reverse transcriptase data ([3]; 30 μg/ml, day 11) was 7092, the reverse transcriptase data ([3]; 30 μg/ml, day 18) was 3322 and the reverse transcriptase data ([3]; 30 μg/ml, day 25) was 3212. The reverse transcriptase data ([3]; 30 μg/ml, day 32) was 3960, the reverse transcriptase data ([3]; 30 μg/ml, day 39) was 4543 and the reverse transcriptase data ([3]; 30 μg/ml, day 46) was 1245. The reverse transcriptase data ([3]; 30 μg/ml, day 53) was 2402, the reverse transcriptase data ([3]; 30 μg/ml, day 60) was 2410 and the reverse transcriptase data ([3]; 30 μg/ml, day 67) was 1843. The reverse transcriptase data ([3]; 30 μg/ml, day 71) was 2121, the reverse transcriptase data ([3]; 30 μg/ml, day 74) was 1285 and the reverse transcriptase data ([3]; 30 μg/ml, day 88) was 2543. For the same compound, the reverse transcriptase data ([3]; 30 μg/ml, day 95) was 2245, the reverse transcriptase data ([3]; 30 μg/ml, day 102) was 2402 and the reverse transcriptase data ([3]; 30 μg/ml, day 109) was 1140. The “reverse transcriptase data on continuation (in words)” value ([3]; run through 242 days) was “data remained consistent”, the “reverse transcriptase data on continuation (in words)” value [4] was “data remained consistent” and the MFC ([5]; Cryptococcus neoformans, cidal level) was over 32 µg/mL. The MIC ([5]; Cryptococcus neoformans, growth inhibited or reduced at least 90%) was 0.03 µg/mL (≈ 0.149 µM) and the “activity against Cryptococcus neoformans (in words)” value ([5]; in vitro) was “active”.
